This is an account of results in PubChem BioAssay AID179 (DTP/NCI, 2004).

The assay concerns CEM cells HIV-1 protection, formazan growth assay. The experiment in a line: NCI AIDS Antiviral Assay. The note with it: for IC50: measured here: growth of uninfected CEM cells. The method in brief:
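Human CEM cells, uninfected and HIV-1-infected, received five drug concentrations, and growth was read by soluble formazan assay. Compounds giving at least 50% protection were retested; reproducible 100% protection defined confirmed active.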

Activity calls are given as the source filed them.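 Rule for the calls: active = compounds giving half or more protection of infected cells from virus-caused growth loss, again on retest; inactive = the rest.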 A value given as a limit tells only on which side of the number the result lay.

For `CCCC1(N2C(=O)c3ccc4c5c(ccc(c35)C2=O)N(C2(CCC)CCCCC2)C4=O)CCCCC1`, the EC50 was above 100 µM and the IC50 was above 100 µM. With `CN1N=C(c2ccncc2)OC1c1cccc(C(F)(F)F)c1` (stereo not given), the EC50 is above 200 µM and the IC50 was 44.7 µM. With `CCc1ccccc1-n1c2nc(=O)n(C)c(=O)c-2nc2ccccc21`, the result was inactive.

Take `C=C1C(C)C2C(Cc3ccccc3)NC(=O)C23OC(=O)/C=C\CC(=O)CCC(C)C/C=C/C3C1O` (stereo not given): the EC50 is above 38.9 µM and the IC50 worked out at 1.45 µM. Consider `Cc1cc2oc3ccccc3c(=O)c2c(C)c1Cl`, for which the EC50 is above 28.2 µM and the IC50 was above 28.2 µM. On to `COC(=O)C(CC(C)=O)CS(=O)(=O)CC(=O)C(=O)Nc1cccc([N+](=O)[O-])c1` (stereo not given), for which the EC50 was above 162 µM and the IC50 is above 162 µM. `COc1ccc(-c2c(-c3ccccc3)c(C)nc3[nH]c(=S)[nH]c(=S)c23)cc1OC`: the EC50 is above 200 µM and the IC50 was determined as 43.7 µM. On the same counts, the results for `Nc1ccccc1Sc1ccccc1` are above 372 µM and 77.6 µM. On the same counts, the results for `Cc1ccc(C2=C(c3ccccc3)C(Br)(c3ccccc3)C(c3ccccc3)=C2c2ccc(C)cc2)cc1` are above 26.9 µM and above 26.9 µM.

In the case of `COc1cc(C2c3[nH]c4ccc(F)cc4c3C[C@H]3COC(=O)N23)cc(OC)c1O` (stereo not given in full), the EC50 is above 200 µM and the IC50 was determined as 0.575 µM. On the same counts, the results for `CCc1cc2c(=O)[nH]c(-c3cccnc3)nc2s1` are above 200 µM and above 200 µM.

As for `S=c1nc(COc2ccc(Cl)cc2Cl)[nH][nH]1`, the EC50 is above 67.6 µM and the IC50 came to 51.3 µM. On the same counts, the results for `COc1cc2c[n+](C)c3c(c2cc1OC)Cc1cc2c(cc1-3)OCO2` are above 19.5 µM and above 19.5 µM. Turning to `Cc1ccc(SCC(CF)OCn2cc(F)c(=O)[nH]c2=O)cc1` (stereo not given), the EC50 is above 200 µM and the IC50 was found to be 123 µM. The matching figures for `COc1cc(O)c2c(=O)c(O)c(-c3ccc(O)c(O)c3)oc2c1`: above 93.3 µM and 47.9 µM. Take `COc1cc(/C=C/C(=N\NC(=O)c2ccccc2)c2sc(Nc3ccc(Cl)c(Cl)c3)nc2C)ccc1O`: the EC50 was above 46.8 µM and the IC50 was 38.9 µM. As to `O=C1c2ccccc2SC[C@@H]2CCCN12`, the EC50 is above 407 µM and the IC50 was above 407 µM. In the case of `COC(=O)C(C)(C)[C@@H]1OC(=O)N(S(=O)(=O)c2c(C)cc(C)cc2C)[C@H]1C(C)C`, the EC50 was above 200 µM and the IC50 was 50.1 µM.

`CCOC(=O)c1cn2c(ccc3sc4ccccc4c(=O)c32)n1`: the EC50 is above 200 µM and the IC50 is above 200 µM.

Regarding `CC(=O)NC1Cc2ccccc2C1=O` (stereo not given), the EC50 was above 200 µM and the IC50 was above 200 µM. As to `CC(=O)O[C@H]1C[C@H]2[C@@H](OC(C)=O)/C=C3\C[C@](C)(C(=O)[C@H](O)C(=C1C)C2(C)C)[C@@H](O)C[C@@H]3OC(=O)[C@H](O)[C@H](c1ccccc1)N(C)C`, the EC50 is above 200 µM and the IC50 is above 200 µM. Regarding `CC(=O)N1C(=O)CC(c2ccccc2)Sc2ccccc21` (stereo not given), the EC50 was above 151 µM and the IC50 is above 151 µM. As for `CC(C1=CC=C2[C@@H]3CCC4CC(N(C)C)CC[C@]4(C)C3CC[C@]12C)N(C)C=O` (stereo not given in full), the EC50 is above 35.5 µM and the IC50 was above 35.5 µM. `COc1ccc(-c2c(C3=NCCN3)nnn2-c2ccccc2)cc1`: the EC50 is above 295 µM and the IC50 was above 295 µM. For `CC1CCCN1c1ccnc2cc(Cl)ccc12` (stereo not given), the EC50 is above 1000 µM and the IC50 was determined as 288 µM. As to `CN1NC2=NCCN=C3NN(C)C(=NCCN=C1S2)S3`, the result was inactive and the IC50 was above 200 µM. Turning to `O=c1cc(-c2ccccc2)oc2cc(Oc3nnnn3-c3ccccc3)ccc12`, the EC50 is above 200 µM and the IC50 worked out at 42.7 µM. The matching figures for `CC(=O)O[C@@H]1CC[C@]2(C)C3CC[C@]4(C)C(C(C)CCc5nc6ccccc6[nH]5)CCC4C3[C@H](OC(C)=O)C[C@@H]2C1` (stereo not given in full): above 50.1 µM and 12.9 µM. The matching figures for `CCCCCCCCCCCCCCCCOC1OC(CSSCC2OC(OCCCCCCCCCCCCCCCC)C(O)C(O)C2O)C(O)C(O)C1O` (stereo not given): 5.25 µM and 6.03 µM. The matching figures for `O=C(CBr)N1CCC2(CC1)SSC1(CCN(C(=O)CBr)CC1)S2`: above 200 µM and 0.575 µM.

Turning to `O=C(CCCC[n+]1ccccc1)Sc1ccccc1C(=O)Nc1ccc(S(=O)(=O)c2ccc(NS(=O)(=O)Cc3ccccc3[N+](=O)[O-])cc2)cc1`, the EC50 is 9.55 µM and the IC50 was above 200 µM.

Consider `O=C1C=C(NC(c2ccccc2)c2nc3ccccc3[nH]2)C(c2ccccc2)N1c1ccccc1` (stereo not given), for which the result was inactive.

For `COc1ccc(NC(=O)CSc2nnc(Cc3ccccc3)o2)cc1`, the EC50 was above 100 µM and the IC50 turned out to be 23.4 µM. The matching figures for `CS(=O)(=O)Oc1nn2c(OS(C)(=O)=O)nnc2s1`: above 200 µM and 28.8 µM. On to `O/N=C(\c1ccccc1)N1CCCCC1`, for which the result was inactive.

As to `S=c1nc2[nH]c3ccccc3c2n[nH]1`, the EC50 is above 200 µM and the IC50 is above 200 µM.

Turning to `COC(=O)C1=CC2OC1(C)C1(CC1)C2=O` (stereo not given), the result was inactive. Still for that read-out and setting: with `CCOC(=O)c1nc2cc(C(F)(F)F)ccc2nc1Nc1cc(OC)c(OC)c(OC)c1` the entry was “inactive”. Same read-out and setting: for `O=C(Nc1ccc([N+](=O)[O-])cc1C(=O)O)c1ccc([N+](=O)[O-])cc1` the value was “inactive”. As to `Cc1csc([C@H]2CCC3[C@@H]4CC=C5C[C@@H](O)CC[C@]5(C)C4CC[C@@]32C)n1` (stereo not given in full), the EC50 was above 67.6 µM and the IC50 is above 67.6 µM. For the compound `COC(=O)CN1CCN(c2cccc3c2CCCC3)CC1`, the EC50 is above 200 µM and the IC50 came to 64.6 µM. The matching figures for `COC1=CC(=O)O/C1=C(\OC)C1OC1c1ccccc1` (stereo not given): 5.37 µM and 97.7 µM. On the same counts, the results for `O=c1[nH]n(Cc2ccccc2)c2ccc([N+](=O)[O-])cc12` are above 200 µM and 25.7 µM. On the same counts, the results for `CC1(C)[C@H](CO)C(CO)[C@@H]1n1cnc2c(N)ncnc21` (stereo not given in full) are above 912 µM and above 912 µM. Turning to `O=C(CC/C(CC(=O)c1ccc(Br)cc1)=N\O)Nc1ccc(Cl)c(Cl)c1`, the EC50 was above 79.4 µM and the IC50 is 16.2 µM.

Regarding `CC1=C(C(=O)NCc2ccccc2)C(c2ccc(C3C(C(=O)NCc4ccccc4)=C(C)NC(C)=C3C(=O)NCc3ccccc3)cc2)C(C(=O)NCc2ccccc2)=C(C)N1`, the EC50 is above 12 µM and the IC50 was determined as 7.94 µM. Consider `Cc1cnc2c(ccc3c(C)c(C)cnc32)c1C.Cc1cnc2c(ccc3c(C)c(C)cnc32)c1C.O=C1OC(C(O)C[O-])C(O)=C1O.[Cu+]`, for which the EC50 is above 25.1 µM and the IC50 came out at 0.912 µM. On the same counts, the results for `O=S(=O)(O)c1ccc(NN(c2c(O)ccc3ccccc23)S(=O)(=O)O)cc1` are above 550 µM and 229 µM. Turning to `O=C1OC(C2Cc3ccccc3C2=O)c2ccccc21` (stereo not given), the EC50 is above 200 µM and the IC50 came to 186 µM. As to `CCC(C)(CC(=O)O)CC(=O)OC[C@]12CC[C@@H](C(C)C)[C@@H]1[C@H]1CC[C@@H]3[C@@]4(C)CC[C@H](OC(=O)CC(C)(CC)CC(=O)O)C(C)(C)[C@@H]4CC[C@@]3(C)[C@]1(C)CC2` (stereo not given in full), the EC50 is above 200 µM and the IC50 came to 7.08 µM.

With `C=CCN1C(=O)CS/C1=N\NC(=O)CSc1nc2ccccc2c(=O)n1CC`, the EC50 is above 200 µM and the IC50 was above 200 µM.

On to `CC(=O)Oc1ccccc1[C@H]1CC(=O)C[C@H](c2ccccc2OC(C)=O)C12C(=O)c1ccccc1C2=O`, for which the EC50 is above 200 µM and the IC50 was 46.8 µM. For the compound `CCOC(=O)C(C(CC(=O)OC)NC(=O)OCc1ccccc1)C1(C)OCCO1` (stereo not given), the EC50 was above 251 µM and the IC50 is above 251 µM.

With `CC1=CC(=O)N(n2c(-c3ccccc3)n[nH]c2=O)C1=O`, the EC50 was above 200 µM and the concentration for half-maximal inhibition (IC50) was above 200 µM.

Take `COc1ccc(/C(Nc2ccccc2)=C(\CCl)c2ccccc2)cc1OC`: the EC50 was above 200 µM and the IC50 is 31.6 µM. On the same counts, the results for `N#Cc1c2nc3ccccc3nc2n2ccc3ccccc3c12` are above 200 µM and above 200 µM. On the same counts, the results for `O=[N+]([O-])c1ccccc1C1N2CCCCC2[C@@H]2c3[nH]c4ccccc4c3CCN12` (stereo not given in full) are above 18.6 µM and above 18.6 µM. Turning to `Cc1c(O)c2ccccc2c2c1sc(NCCCN(CCO)CCO)[n+]2C`, the EC50 is above 200 µM and the IC50 is 11.2 µM. For `CC1=Nc2ccccc2/C1=C\c1c(C)[nH]c2ccccc12`, the EC50 was 0.0631 µM and the IC50 was found to be 11.5 µM. For `NCCn1ccc(NC(c2ccccc2)(c2ccccc2)c2ccccc2)nc1=O`, the EC50 was above 91.2 µM and the IC50 was found to be 45.7 µM. Turning to `N#CC1(C#N)C2CCCCC23OC(=N)C1(C#N)C(c1ccco1)O3` (stereo not given), the EC50 was above 200 µM and the IC50 came to 5.75 µM. On the same counts, the results for `CN(/N=C/c1ccccc1C(=O)O)C1=NCCCCN1` are above 200 µM and above 200 µM. With `N=c1oc2ccc3ccccc3c2cc1C(N)=S`, the EC50 was above 200 µM and the IC50 was found to be 9.55 µM. On the same counts, the results for `CCCC(=O)OC(C(Cl)(Cl)Cl)P(=O)(OC)OC` (stereo not given) are above 200 µM and 30.9 µM.

Consider `C=C1CCCCCCCCCCC12SCCCS2`, for which the EC50 was above 200 µM and the IC50 was above 200 µM. In the case of `COc1cc(O)c(C(=O)/C=C/c2ccc(OC)c(OCc3ccccc3)c2)c(OC)c1`, the result was inactive. For the compound `COC(=O)c1c(-c2ccccc2)c(C(O)c2ccccc2)n2ccccc12` (stereo not given), the EC50 was above 26.3 µM and the IC50 was found to be 14.1 µM. The matching figures for `CC(C)(C)c1ccc(O)c(C(c2ccc([N+](=O)[O-])cc2)c2cc(C(C)(C)C)ccc2O)c1`: above 200 µM and 3.55 µM. Take `O=C1C2c3[nH]c4ccccc4c3C3CCCCC3C2C(=O)N1c1ccccc1` (stereo not given): the outcome was inactive.
